Our source for the logP, solubility and logD values is the OPERA property sets (Mansouri et al. 2018).

Converted amounts (≈) assume the structure as drawn.

In the case of `CCCN(CCC)c1c([N+](=O)[O-])cc(C(F)(F)F)c(N)c1[N+](=O)[O-]`, the lipophilicity (logP) – broadly, a log measure of how a compound divides between an organic and an aqueous phase – was 4.1.
With `C/C(=N\NC(=O)Nc1cc(F)cc(F)c1)c1ncccc1C(=O)O`, the solubility (commonly the dissolved amount per volume that the medium holds) stood at 0.188 mM (≈ 63 µg/mL).
`CCCSC(=O)N(CCC)CCC` registered a logP of 3.84. Besides, the solubility (20 °C) came out at 0.443 mM (≈ 90 µg/mL).
The compound `O=C(O)c1ccccc1C(=O)Nc1ccccc1` came in with a solubility (20 °C) of 0.0829 mM (≈ 20 µg/mL).
In the case of `CC(C)N(Cc1ccccc1)C(=O)C(C)(C)C`, the log partition coefficient (logP) is 3. The compound also registered a solubility (pH 7.0, 20 °C) of 3.39 mM (≈ 790 µg/mL).
As to `Cc1ccn2nc(S(=O)(=O)Nc3c(F)cccc3F)nc2n1`, the solubility (pH 2.5) stood at 0.15 mM (≈ 48.7 µg/mL).
In turn, `CCSCc1ccccc1OC(=O)NC` gave a lipophilicity (logP) of 2.04.
Take `CC(C)=C1OC(=O)N(c2cc(OC3CCCC3)c(Cl)cc2F)C1=O`: the solubility (25 °C) worked out at 0.000611 mM (≈ 0.216 µg/mL).
`CC(C)(C)N(NC(=O)c1ccc(Cl)cc1)C(=O)c1ccccc1` showed a log partition coefficient (logP) of 3.22 and a solubility of 0.0363 mM (≈ 12 µg/mL).
The compound `CCCCCC(C)OC(=O)COc1ccc(Cl)c2cccnc12` (centres undefined) registered a logP of 5.03. Also, the solubility (25 °C) amounted to 0.00176 mM (≈ 0.59 µg/mL).
Turning to `C=CCCCOC(=O)C(CC)N(Cc1ccco1)C(=O)n1ccnc1` (centres undefined), the logP was determined as 3.
Take `CC1(C)[C@H](/C=C(\Cl)C(F)(F)F)[C@@H]1C(=O)O[C@H](C#N)c1cccc(Oc2ccccc2)c1`: the logP was found to be 6.8.
As to `CC1=CC[C@@H]2C[C@@H](C[C@]3(CC[C@H](C)[C@@H](C)O3)O2)OC(=O)[C@@H]2C=C(C)[C@@H](O)[C@H]3OCC(=CC=C[C@H](C)C1)[C@]32O`, the logP worked out at 5.3. Besides, under “20 °C”, the solubility is 0.00166 mM (≈ 0.88 µg/mL).
As to `C#CCOc1cc(-n2nc3n(c2=O)CCCC3)c(Cl)cc1Cl`, for the setting “pH 7.0”, the solubility was 0.0473 mM (≈ 16 µg/mL).
As to `Cc1c(COC(=O)[C@@H]2[C@H](/C=C(\Cl)C(F)(F)F)C2(C)C)cccc1-c1ccccc1` (racemic), the solubility came to 0.000236 mM (≈ 0.1 µg/mL).
For `CC1=NNC(=O)N(/N=C/c2cccnc2)C1`, the log partition coefficient (logP) was -0.18. The compound further registered a solubility (25 °C) of 1.34 mM (≈ 290 µg/mL).
Under “pH 7.0, 20 °C”, `CCN(Cc1ccc(Cl)nc1)C(=C[N+](=O)[O-])NC` had a solubility of 3100 mM (≈ 840000 µg/mL).
Take `CNC(=O)Oc1cccc(N=CN(C)C)c1.Cl`: under “25 °C”, the solubility is 3190 mM.
`CCCCOCCOCCOCc1cc2c(cc1CCC)OCO2` showed a log partition coefficient (logP) of 4.75. The compound further registered a solubility (25 °C) of 0.0422 mM (≈ 14.3 µg/mL).
For `COC(=O)C(C)Oc1ccc(Oc2ncc(C(F)(F)F)cc2Cl)cc1` (centres undefined), the logP worked out at 4.07.
Regarding `CNC(=O)CSP(=O)(OC)OC`, the log partition coefficient (logP) was -0.74.
Still for that read-out and setting: in the case of `CCOc1ccc([Si](C)(C)CCCc2ccc(F)c(Oc3ccccc3)c2)cc1` it was 8.2.
The compound `CCOC(=O)C1CC(=O)C(=C(O)C2CC2)C(=O)C1` (centres undefined) displayed a log partition coefficient (logP) of 1.6.
On the same count and under the same terms, the figure for `C#CCOC(=O)[C@@H](C)Oc1ccc(Oc2ncc(Cl)cc2F)cc1` is 3.9; for `O=C(NC(=O)c1c(F)cccc1F)Nc1cc(Cl)c(OC(F)(F)C(F)F)c(Cl)c1` it is 5.68.
Compound `Cc1cccc(C)c1N(C(=O)CCl)C1CCOC1=O` (centres undefined) had a logP of 1.39. Also, where the note is “20 °C”, the solubility was 0.518 mM (≈ 146 µg/mL).
Take `CCNP(=S)(OC)O/C(C)=C/C(=O)OC(C)C` (centres undefined): the logP is 3.82.
`Cc1ccc(N(SC(F)(Cl)Cl)S(=O)(=O)N(C)C)cc1` showed a logP of 3.9. Also, the solubility (20 °C) amounted to 0.00259 mM (≈ 0.9 µg/mL).
In the case of `CCCN(CCC)c1c([N+](=O)[O-])cc(S(N)(=O)=O)cc1[N+](=O)[O-]`, the logP is 3.73.
Take `CNC(=O)N(C)c1nnc(C(C)(C)C)s1`: the solubility (25 °C) is 10.5 mM (≈ 2400 µg/mL).
Consider `CCOC(=O)CSc1nc(C(C)(C)C)nn1C(=O)N(C)C`, for which the logP came to 2.69. In addition, the solubility (pH 7.0, 25 °C) worked out at 1.38 mM (≈ 433 µg/mL).
`CCOC(=O)c1cnn(C)c1S(=O)(=O)NC(=O)Nc1nc(OC)cc(OC)n1` came in with a lipophilicity (logP) of 1.3.
Take `CCOC(=O)[C@@H](C)Oc1ccc(Oc2nc3ccc(Cl)cc3o2)cc1`: the logP is 4.58.
Take `C=C/C=C\CC1=C(C)[C@@H](OC(=O)[C@@H]2[C@@H](C=C(C)C)C2(C)C)CC1=O`: the log partition coefficient (logP) came out at 5.9.
With `COC(=O)CSc1cc(/N=c2\sc(=O)n3n2CCCC3)c(F)cc1Cl`, the log partition coefficient (logP) is 3.77.
`CC1CCCCN1CCCOC(=O)c1ccc(Cl)c(Cl)c1` (centres undefined) had a lipophilicity (logP) of 4.31.
As for `Clc1ccc(CSC(Cn2cncn2)=Nc2ccc(Cl)cc2Cl)cc1`, the logP amounted to 4.94.
Take `COCc1cnc(C2=NC(C)(C(C)C)C(=O)N2)c(C(=O)O)c1` (centres undefined): the logP came out at 0.73.
In the case of `O=c1c2cc(F)ccc2nc(-n2cncn2)n1-c1ccc(Cl)cc1Cl`, the log distribution coefficient (logD) – broadly, lipophilicity at a set pH, counting ionised and neutral species – (pH 5.6) is 3.24.
The compound `O=C(NC(=O)c1c(F)cccc1F)Nc1cc(Cl)c(F)c(Cl)c1F` showed a solubility (23 °C) of 5.12e-05 mM (≈ 0.0195 µg/mL).
Compound `CNC(=O)Oc1cc(C)cc(C)c1` came in with a solubility (20 °C) of 2.62 mM (≈ 470 µg/mL).
As for `CN(C(=O)COc1nc2ccccc2s1)c1ccccc1`, the lipophilicity (logP) was 3.23.
In turn, `COc1ccsc1CN(C(=O)CCl)c1c(C)cccc1C` yielded a log partition coefficient (logP) of 3.53. Moreover, the solubility (20 °C) is 0.034 mM (≈ 11 µg/mL).
Take `CCOP(=O)(SC(C)CC)SC(C)CC` (centres undefined): the log partition coefficient (logP) was 3.9. Besides, the solubility (25 °C) was found to be 0.917 mM (≈ 248 µg/mL).
Where the note is “pH 7.0, 20 °C”, `CCCOC(=O)NCCCN(C)C` gave a solubility of 4780 mM (≈ 900000 µg/mL).
With `CC#CCOC(C)c1ccc(OC)c(OC)c1` (centres undefined), the logP came to 2.4 and the solubility worked out at 0.00427 mM (≈ 1 µg/mL).
